The test system of experiment [1] is HIV pseudotyped virus (NL4-3 provirus, luciferase reporter), WT. Kind of experiment: PSV (pseudotyped virus) assay, WT. The note with it: Human immunodeficiency virus 1, NL43, 72 h, read-out: WT IC50.
Protocol: A pseudotyped virus assay (PSV) was used to assess the potency of the HIV inhibitor.
The PSV assay was performed by using U373 cells stably transformed to express human CD4, the primary receptor for HIV entry and either human CXCR4 or human CCR5 which are the co-receptors required for HIV entry as target cells for infection. […] This dose-range was applied to U373 cells and the pre-made pseudotyped virus added. The amount of luciferase signal produced after 3 days of culture was used to reflect the level of pseudotyped virus infection. An IC50, or the concentration of inhibitor required to reduce PSV infection by 50% from the infection containing no inhibitor was calculated. […] IC50 values were determined from a 10 point dose response curve using 3-4-fold serial dilution for each compound, which spans a concentration range>1000 fold.
These values are plotted against the molar compound concentrations using the standard four parameter logistic equation: y=((Vmax*x^n)/(K^n+x^n))+Y2
The subject of experiment [2] is HIV pseudotyped virus, M184V. In kind it is cell-based. As to conditions: U373 cells (CD4, CXCR4 or CCR5), luciferase signal after 3 days.

For `C#C[C@]1(COC(=O)CCCCCCCCCCCCC)O[C@@H](n2cnc3c(N)nc(F)nc32)C[C@@H]1OC(=O)CCCCCCCCCCCCC` [Example 17, (2R,3S,5R)-5-(6-amino-2-fluoro-9H-purin-9-yl)-2-ethynyl-2-((tetradecanoyloxy)methyl)tetrahydrofuran-3-yl Tetradecanoate], the half-inhibitory concentration (IC50) in experiment [1] came out at 1740 nM; in experiment [2], 10300 nM.
For the molecule `C#C[C@]1(COC(=O)[C@H]2CC[C@H](CCCCC)CC2)O[C@@H](n2cnc3c(N)nc(F)nc32)C[C@@H]1O` [Example 5, ((2R,3S,5R)-5-(6-amino-2-fluoro-9H-purin-9-yl)-2-ethynyl-3-hydroxytetrahydrofuran-2-yl)methyl trans-4-pentylcyclohexane-1-carboxylate], the values for the IC50 in experiment [1] and in experiment [2] were 1 nM and 7 nM, respectively.
The matching figures for `C#C[C@]1(COC(=O)CCCC(=O)OC(COC(=O)CCCCCCCCCCCCC)COC(=O)CCCCCCCCCCCCC)O[C@@H](n2cnc3c(N)nc(F)nc32)C[C@@H]1O` [Example 13, ((2R,3S,5R)-5-(6-amino-2-fluoro-9H-purin-9-yl)-2-ethynyl-3-hydroxytetrahydrofuran-2-yl)methyl 1,3-bis(tetradecanoyloxy)propan-2-yl) glutarate]: 508 nM and 3610 nM.
For `C#C[C@]1(COC(=O)[C@H]2CC[C@H](C(C)(C)C)CC2)O[C@@H](n2cnc3c(N)nc(F)nc32)C[C@@H]1O` [Example 4, ((2R,3S,5R)-5-(6-amino-2-fluoro-9H-purin-9-yl)-2-ethynyl-3-hydroxytetrahydrofuran-2-yl)methyl trans-4-(tert-butyl)cyclohexane-1 carboxylate], in that order: 3 nM and 17 nM.
Turning to `C#C[C@]1(COC(=O)CCCCCC)O[C@@H](n2cnc3c(N)nc(F)nc32)C[C@@H]1OC(=O)CCCCCC` [Example 16, (2R,3S,5R)-5-(6-amino-2-fluoro-9H-purin-9-yl)-2-ethynyl-2-((heptanoyloxy)methyl)tetrahydrofuran-3-yl Heptanoate], the values for the 50% inhibitory concentration (IC50) in experiment [1] and in experiment [2] were 8 nM and 31 nM, respectively.
The matching figures for `C#C[C@]1(COC(=O)CCCC)O[C@@H](n2cnc3c(NC(=O)CCCCCCCCCCC)nc(F)nc32)C[C@@H]1O` [Example 28, ((2R,3S,5R)-5-(6-dodecanamido-2-fluoro-9H-purin-9-yl)-2-ethynyl-3-hydroxytetrahydrofuran-2-yl)methyl Pentanoate]: 6 nM and 26 nM.
As for `C#C[C@]1(COC(=O)[C@H](C)NC(=O)CCCCCC)O[C@@H](n2cnc3c(N)nc(F)nc32)C[C@@H]1O` [Example 36, ((2R,3S,5R)-5-(6-amino-2-fluoro-9H-purin-9-yl)-2-ethynyl-3-hydroxytetrahydrofuran-2-yl)methyl heptanoyl-L-alaninate], the concentration for half-maximal inhibition (IC50) in experiment [1] came to 4 nM; in experiment [2] it was 21 nM.
Regarding `C#C[C@]1(COC(=O)CCCC(=O)OC(COC(=O)CCCCCC)COC(=O)CCCCCC)O[C@@H](n2cnc3c(N)nc(F)nc32)C[C@@H]1O` [Example 12, ((2R,3S,5R)-5-(6-amino-2-fluoro-9H-purin-9-yl)-2-ethynyl-3-hydroxytetrahydrofuran-2-yl)methyl (1,3-bis(heptanoyloxy)propan-2-yl) glutarate], the IC50 in experiment [1] came to 34 nM; in experiment [2] it was 151 nM.
In the case of `C#C[C@]1(COC(=O)CNC(=O)CCCCCC)O[C@@H](n2cnc3c(N)nc(F)nc32)C[C@@H]1O` [Example 34, ((2R,3S,5R)-5-(6-amino-2-fluoro-9H-purin-9-yl)-2-ethynyl-3-hydroxytetrahydrofuran-2-yl)methyl Heptanoylglycinate], the 50% inhibitory concentration (IC50) in experiment [1] came to 4 nM; in experiment [2], 25 nM.
For `C#C[C@]1(COC(=O)CCCC)O[C@@H](n2cnc3c(NC(=O)CCCCCCC)nc(F)nc32)C[C@@H]1O` [Example 26, ((2R,3S,5R)-2-ethynyl-5-(2-fluoro-6-octanamido-9H-purin-9-yl)-3-hydroxytetrahydrofuran-2-yl)methyl Pentanoate], the 50% inhibitory concentration (IC50) is 7 nM in experiment [1] and 28 nM in experiment [2].
For `C#C[C@]1(COC(=O)CCCC)O[C@@H](n2cnc3c(NC(=O)CCCCCCCCCCCCC)nc(F)nc32)C[C@@H]1O` [Example 27, ((2R,3S,5R)-2-ethynyl-5-(2-fluoro-6-tetradecanamido-9H-purin-9-yl)-3-hydroxytetrahydrofuran-2-yl)methyl Pentanoate], in that order: 8 nM and 46 nM.
Turning to `C#C[C@]1(COC(=O)CCCC)O[C@@H](n2cnc3c(N)nc(F)nc32)C[C@@H]1OC(=O)CCCCCCCCCC` [Example 21, (2R,3S,5R)-5-(6-amino-2-fluoro-9H-purin-9-yl)-2-ethynyl-2-((pentanoyloxy)methyl)tetrahydrofuran-3-yl Undecanoate], the values for the half-maximal inhibitory concentration (IC50) in experiment [1] and in experiment [2] were 7 nM and 44 nM, respectively.
For the molecule `C#C[C@]1(COC(=O)COCCOCCOC)O[C@@H](n2cnc3c(N)nc(F)nc32)C[C@@H]1O` [Example 7, ((2R,3S,5R)-5-(6-amino-2-fluoro-9H-purin-9-yl)-2-ethynyl-3-hydroxytetrahydrofuran-2-yl)methyl 2-(2-(2-methoxyethoxy)ethoxy)acetate], the figures for the IC50 in experiment [1] and in experiment [2] were 4 nM and 24 nM, respectively.
Take `C#C[C@]1(COC(=O)CCCCCCCCCCCCCCCCCCC(=O)O)O[C@@H](n2cnc3c(N)nc(F)nc32)C[C@@H]1O` [Example 11, 20-(((2R,3S,5R)-5-(6-amino-2-fluoro-9H-purin-9-yl)-2-ethynyl-3-hydroxytetrahydrofuran-2-yl)methoxy)-20-oxoicosanoic Acid]: the IC50 is 8 nM in experiment [1] and 37 nM in experiment [2].
For the molecule `C#C[C@]1(COC(=O)CCCC)O[C@@H](n2cnc3c(N)nc(F)nc32)C[C@@H]1OC(=O)CCCCCCCCCCCC` [Example 19, (2R,3S,5R)-5-(6-amino-2-fluoro-9H-purin-9-yl)-2-ethynyl-2-((pentanoyloxy)methyl)tetrahydrofuran-3-yl Tridecanoate], the IC50 in experiment [1] came to 18 nM; in experiment [2], 87 nM.
Consider `C#C[C@]1(COC(=O)COCCOCCCC)O[C@@H](n2cnc3c(N)nc(F)nc32)C[C@@H]1O` [Example 8, ((2R,3S,5R)-5-(6-amino-2-fluoro-9H-purin-9-yl)-2-ethynyl-3-hydroxytetrahydrofuran-2-yl)methyl 2-(2-butoxyethoxy)acetate], for which the IC50 in experiment [1] amounted to 2 nM; in experiment [2] it was 11 nM.
As to `C#C[C@]1(COC(=O)CCCCCCCCCCCCC(=O)O)O[C@@H](n2cnc3c(N)nc(F)nc32)C[C@@H]1O` [Example 10, 14-(((2R,3S,5R)-5-(6-amino-2-fluoro-9H-purin-9-yl)-2-ethynyl-3-hydroxytetrahydrofuran-2-yl)methoxy)-14-oxotetradecanoic Acid], the IC50 was 9 nM in experiment [1] and 44 nM in experiment [2].
For the molecule `C#C[C@]1(COC(=O)C(CCC)CCC)O[C@@H](n2cnc3c(N)nc(F)nc32)C[C@@H]1OC(=O)CCCCCCCCCCC` [Example 29, (2R,3S,5R)-5-(6-amino-2-fluoro-9H-purin-9-yl)-2-ethynyl-2-(((2-propylpentanoyl)oxy)methyl)tetrahydrofuran-3-yl Dodecanoate], the IC50 stood at 238 nM in experiment [1] and 1350 nM in experiment [2].
The matching figures for `C#C[C@]1(COC(=O)CCCC)O[C@@H](n2cnc3c(N)nc(F)nc32)C[C@@H]1OC(=O)CCCCCC` [Example 20, (2R,3S,5R)-5-(6-amino-2-fluoro-9H-purin-9-yl)-2-ethynyl-2-((pentanoyloxy)methyl)tetrahydrofuran-3-yl Heptanoate]: 5 nM and 25 nM.
Turning to `C#C[C@]1(COC(=O)c2ccccc2)O[C@@H](n2cnc3c(N)nc(F)nc32)C[C@@H]1O` [Example 2, ((2R,3S,5R)-5-(6-amino-2-fluoro-9H-purin-9-yl)-2-ethynyl-3-hydroxytetrahydrofuran-2-yl)methyl Benzoate], the figures for the IC50 in experiment [1] and in experiment [2] were 3 nM and 13 nM, respectively.
`C#C[C@]1(COC(=O)CCCCCCCCC(=O)O)O[C@@H](n2cnc3c(N)nc(F)nc32)C[C@@H]1O` [Example 9, 10-(((2R,3S,5R)-5-(6-amino-2-fluoro-9H-purin-9-yl)-2-ethynyl-3-hydroxytetrahydrofuran-2-yl)methoxy)-10-oxodecanoic Acid]: the IC50 in experiment [1] was found to be 35 nM; in experiment [2], 167 nM.
On to `C#C[C@]1(COC(=O)CCCCCCCCC)O[C@@H](n2cnc3c(N)nc(F)nc32)C[C@@H]1OC(=O)OCC` [Example 15, ((2R,3S,5R)-5-(6-amino-2-fluoro-9H-purin-9-yl)-3-((ethoxycarbonyl)oxy)-2-ethynyltetrahydrofuran-2-yl)methyl Decanoate], for which the results for the IC50 in experiment [1] and in experiment [2] were 77 nM and 328 nM, respectively.
The matching figures for `C#C[C@]1(COC(=O)CCCC)O[C@@H](n2cnc3c(N)nc(F)nc32)C[C@@H]1OC(=O)CCCCCCCC` [Example 22, (2R,3S,5R)-5-(6-amino-2-fluoro-9H-purin-9-yl)-2-ethynyl-2-((pentanoyloxy)methyl)tetrahydrofuran-3-yl Nonanoate]: 7 nM and 35 nM.
Consider `C#C[C@]1(COC(=O)CCCC(=O)OCCCCCCCCCCCCCC)O[C@@H](n2cnc3c(N)nc(F)nc32)C[C@@H]1O` [Example 14, ((2R,3S,5R)-5-(6-amino-2-fluoro-9H-purin-9-yl)-2-ethynyl-3-hydroxytetrahydrofuran-2-yl)methyl Tetradecyl Glutarate], for which the IC50 in experiment [1] worked out at 33 nM; in experiment [2], 148 nM.
For `C#C[C@]1(COC(=O)CCCC)O[C@@H](n2cnc3c(NC(=O)CCC)nc(F)nc32)C[C@@H]1O` [Example 25, ((2R,3S,5R)-5-(6-butyramido-2-fluoro-9H-purin-9-yl)-2-ethynyl-3-hydroxytetrahydrofuran-2-yl)methyl Pentanoate], in that order: 21 nM and 186 nM.
The matching figures for `C#C[C@]1(COC(=O)C(CCC)CCC)O[C@@H](n2cnc3c(N)nc(F)nc32)C[C@@H]1OC(=O)CCC` [Example 30, ((2R,3S,5R)-5-(6-amino-2-fluoro-9H-purin-9-yl)-3-(butyryloxy)-2-ethynyltetrahydrofuran-2-yl)methyl 2-propylpentanoate]: 334 nM and 1500 nM.

By IC50 is commonly meant the concentration that inhibits the measured activity by half.

Values taken from patent publication US12240853B2, “Compounds useful in HIV therapy” (GlaxoSmithKline Intellectual Property (No.2) Limited, priority 2019, dated 2025).
